ChEMBL document CHEMBL3603797, “Factors that influence T box riboswitch efficacy and tRNA affinity” (Bioorg Med Chem, 2015)
pIC50: −log10 of the molar value. Active and inactive are the calls of the source. The calls are words filed in the database; no cut-off is given here.

How the values were obtained:
[1] = Inhibition of readthrough probe 5'Cy5-CGCAccuccacuuuucuuucauaaTGCG-Dabcyl3' binding to 5'UUAUGAAAGAAAAGUGGAGGUGC3' RNA (unknown origin) by fluorescence assay
[2] = Binding affinity to Bacillus subtilis glyQS T box riboswitch mRNA assessed as inhibition of tRNAgly-induced glyQS transcription readthrough after 3 hrs by fluorescence assay

inhibition [1]: inactive | pIC50 [2]: 5.10
Structure (SMILES): CN(CCCc1ccccc1)Cc1cn(CC(O)COC(=O)NCc2ccccc2)nn1 (configuration not stated)
